We go through 32 compounds from patent publication US7795261B2, “Substituted 1-piperidin-4-yl-4-pyrrolidin-3-yl-piperazine derivatives and their use as neurokinin antagonists” (Janssen Pharmaceutica NV, priority 2002, dated 2010).

One assay addresses T1, NK3 (Homo sapiens, UniProt P29371).
T1 sequence (P29371 1-465): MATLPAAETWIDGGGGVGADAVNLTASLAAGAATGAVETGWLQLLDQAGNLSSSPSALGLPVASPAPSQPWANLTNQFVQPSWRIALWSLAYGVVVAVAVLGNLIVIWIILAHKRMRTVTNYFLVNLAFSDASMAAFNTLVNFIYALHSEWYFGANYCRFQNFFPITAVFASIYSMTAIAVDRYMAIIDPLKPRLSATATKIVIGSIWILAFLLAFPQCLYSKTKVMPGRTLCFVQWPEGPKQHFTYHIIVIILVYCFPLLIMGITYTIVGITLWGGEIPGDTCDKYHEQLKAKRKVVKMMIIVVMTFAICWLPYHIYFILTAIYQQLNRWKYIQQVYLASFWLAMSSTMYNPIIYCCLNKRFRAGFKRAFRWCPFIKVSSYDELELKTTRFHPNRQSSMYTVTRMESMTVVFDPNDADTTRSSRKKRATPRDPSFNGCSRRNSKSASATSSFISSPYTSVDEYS
Kind of assay: Signal transduction (ST), intracellular Ca++ (FLIPR), NK3. It counts as cell-based. The settings on record: read-out: pIC50 NK3 (converted). Here is the method: [The procedure below names another target; the source lists this target under the same test.] (§1) This test evaluates in vitro functional NK1 antagonistic activity. For the measurements of intracellular Ca^++ concentrations the cells were grown on 96-well (black wall/transparent bottom) plates from Costar for 2 days until they reached confluence. The cells were loaded with 2 μM Fluo3 in DMEM containing 0.1% BSA and 2.5 mM probenecid for 1 h at 37° C. They were washed 3× with a Krebs buffer (140 mM NaCl, 1 mM MgCl2×6H2O, 5 mM KCl, 10 mM glucose, 5 mM HEPES; 1.25 mM CaCl2; pH 7.4) containing 2.5 mM probenecid and 0.1% BSA (Ca^++-buffer). The cells were preincubated with a concentration range of antagonists for 20 min at RT and Ca^++-signals after addition of the agonists were measured in a Fluorescence Image Plate Reader (FLIPR from Molecular Devices, Crawley, England). The peak of the Ca^++-transient was considered as the relevant signal and the mean values of corresponding wells were analysed as described below.
The sigmoidal dose response curves were analysed by computerised curve-fitting, using the GraphPad Program. […] For antagonist responses the IC50-value was calculated using non-linear regression.
The last columns indicates—without being limited therefore—for which the compounds might be most suitable. Of course, since for some neurokinin receptors no data was determined, it is obvious that these compounds might be attributed to another suitable use.

The target in another assay is NK1 (Homo sapiens, UniProt P25103). Kind of assay: Signal transduction (ST), intracellular Ca++ (FLIPR), NK1 antagonistic activity. The class given is cell-based. The settings on record: read-out: pIC50 NK1 (converted). Here is the method: as §1
NK1, sequence (P25103 whole entry): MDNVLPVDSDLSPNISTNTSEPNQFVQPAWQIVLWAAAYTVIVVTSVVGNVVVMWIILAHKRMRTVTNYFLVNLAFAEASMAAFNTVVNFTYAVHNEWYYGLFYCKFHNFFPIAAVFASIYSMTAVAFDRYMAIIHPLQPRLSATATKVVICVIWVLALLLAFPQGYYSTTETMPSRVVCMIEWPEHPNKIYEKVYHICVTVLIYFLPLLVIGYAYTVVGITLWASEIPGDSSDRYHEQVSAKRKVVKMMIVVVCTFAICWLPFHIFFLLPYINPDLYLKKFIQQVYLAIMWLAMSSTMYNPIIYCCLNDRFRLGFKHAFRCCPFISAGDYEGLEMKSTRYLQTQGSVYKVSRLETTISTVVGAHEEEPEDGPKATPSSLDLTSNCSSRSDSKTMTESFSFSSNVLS
The sigmoidal dose response curves were analysed by computerised curve-fitting, using the GraphPad Program. […] For antagonist responses the IC50-value was calculated using non-linear regression. […]

As to `O=C(C1CCOC1)N1CCC(N2CCN(C3CCN(C(=O)c4cc(C(F)(F)F)cc(C(F)(F)F)c4)C(Cc4ccccc4)C3)CC2)C1` (single isomer, unassigned) [Compound 139], the IC50 is 6.31 µM on NK3 and 0.158 µM on NK1.

Turning to `O=C(c1ccccc1Cl)N1CCC(N2CCN(C3CCN(C(=O)c4cc(C(F)(F)F)cc(C(F)(F)F)c4)C(Cc4ccccc4)C3)CC2)C1` (single isomer, unassigned) [Compound 160], the IC50 is 0.398 µM at NK3 and 0.01 µM on NK1.

`CC(C)(C)OC(=O)N1CCC(N2CCN(C3CCN(C(=O)c4cc(C(F)(F)F)cc(C(F)(F)F)c4)C(Cc4ccc(Cl)c(Cl)c4)C3)CC2)C1` (single isomer, unassigned) [Compound 165]: the IC50 was 0.794 µM on NK3 and 0.0501 µM at NK1.

`O=C(C(=O)N1CCC(N2CCN(C3CCN(C(=O)c4cc(C(F)(F)F)cc(C(F)(F)F)c4)C(Cc4ccccc4)C3)CC2)C1)c1ccco1` (single isomer, unassigned) [Compound 191]: the IC50 at NK3 is 2.51 µM; on NK1 it was 0.0158 µM.

With `N#Cc1cccc(C(=O)N2CCC(N3CCN(C4CCN(C(=O)c5cc(C(F)(F)F)cc(C(F)(F)F)c5)C(Cc5ccccc5)C4)CC3)C2)c1` (single isomer, unassigned) [Compound 192], the values for the IC50 at NK3 and on NK1 were 0.631 µM and 0.01 µM, respectively.

`N#Cc1cccc(C(=O)N2CCC(N3CCN(C4CCN(C(=O)c5cc(C(F)(F)F)cc(C(F)(F)F)c5)C(Cc5ccccc5)C4)CC3)C2)c1` (single isomer, unassigned) [Compound 193]: the IC50 is 0.501 µM on NK3 and 0.00794 µM at NK1.

Consider `O=C(c1cc(C(F)(F)F)cc(C(F)(F)F)c1)N1CCC(N2CCN(C3CCN(Cc4ccccc4)C3)CC2)CC1Cc1ccc(F)c(F)c1` (single isomer, unassigned) [Compound 222], for which the IC50 is 6.31 µM at NK3 and 0.0501 µM at NK1.

Turning to `O=C(c1cc(C(F)(F)F)cc(C(F)(F)F)c1)N1CCC(N2CCN(C3CCN(Cc4ccccc4)C3)CC2)CC1Cc1ccc(F)c(F)c1` (single isomer, unassigned) [Compound 223], the IC50 at NK3 was 1.58 µM; at NK1, 0.158 µM.

`O=C(C1CCOC1)N1CCC(N2CCN(C3CCN(C(=O)c4cc(C(F)(F)F)cc(C(F)(F)F)c4)C(Cc4ccc(F)c(F)c4)C3)CC2)C1` (single isomer, unassigned) [Compound 227]: the figures for the IC50 at NK3 and on NK1 were 1.58 µM and 0.00316 µM, respectively.

On to `O=C(C1CC1)N1CCC(N2CCN(C3CCN(C(=O)c4cc(C(F)(F)F)cc(C(F)(F)F)c4)C(Cc4ccc(F)c(F)c4)C3)CC2)C1` (single isomer, unassigned) [Compound 231], for which the IC50 on NK3 was 3.16 µM; at NK1, 0.00631 µM.

Consider `CC(C(=O)N1CCC(N2CCN([C@H]3CCN(C(=O)c4cc(C(F)(F)F)cc(C(F)(F)F)c4)[C@H](Cc4ccc(F)c(F)c4)C3)CC2)C1)c1ccccc1` (single isomer, unassigned) [Compound 233], for which the IC50 at NK3 was 0.794 µM; on NK1, 0.0251 µM.

For `O=C(c1cc(C(F)(F)F)cc(C(F)(F)F)c1)N1CCC(N2CCN(C3CCN(S(=O)(=O)c4cccs4)C3)CC2)CC1Cc1ccc(F)c(F)c1` (single isomer, unassigned) [Compound 234], the IC50 was 3.16 µM at NK3 and 0.01 µM at NK1.

In the case of `Cc1nnsc1C(=O)N1CCC(N2CCN(C3CCN(C(=O)c4cc(C(F)(F)F)cc(C(F)(F)F)c4)C(Cc4ccc(F)c(F)c4)C3)CC2)C1` (single isomer, unassigned) [Compound 236], the IC50 is 5.01 µM at NK3 and 0.00398 µM on NK1.

For `O=C(c1cnccn1)N1CCC(N2CCN(C3CCN(C(=O)c4cc(C(F)(F)F)cc(C(F)(F)F)c4)C(Cc4ccc(F)c(F)c4)C3)CC2)C1` (single isomer, unassigned) [Compound 237], the IC50 on NK3 is 3.98 µM; on NK1, 0.01 µM.

`O=C(C1CCOC1)N1CCC(N2CCN(C3CCN(C(=O)c4cc(C(F)(F)F)cc(C(F)(F)F)c4)C(Cc4ccc(F)c(F)c4)C3)CC2)C1` (single isomer, unassigned) [Compound 242]: the IC50 is 2.51 µM on NK3 and 0.01 µM at NK1.

For `Cc1nnsc1C(=O)N1CCC(N2CCN(C3CCN(C(=O)c4cc(C(F)(F)F)cc(C(F)(F)F)c4)C(Cc4ccccc4)C3)CC2)C1` (single isomer, unassigned) [Compound 381], the IC50 on NK3 is 2.51 µM; at NK1, 0.00501 µM.

Turning to `O=C(C1CCCCC1)N1CCC(N2CCN(C3CCN(C(=O)c4cc(C(F)(F)F)cc(C(F)(F)F)c4)C(Cc4ccccc4)C3)CC2)C1` (single isomer, unassigned) [Compound 402], the IC50 on NK3 was 0.501 µM; on NK1, 0.0158 µM.

With `O=C(c1ccccc1)N1CCC(N2CCN(C3CCN(C(=O)c4cc(C(F)(F)F)cc(C(F)(F)F)c4)C(Cc4ccccc4)C3)CC2)C1` (stereo not shown) [Compound 3], the results for the IC50 at NK3 and on NK1 were 1.58 µM and 0.126 µM, respectively.

`O=C(c1cc(C(F)(F)F)cc(C(F)(F)F)c1)N1CC[C@H](N2CCN(C3CCN(c4nc5ccccc5s4)C3)CC2)C[C@H]1Cc1ccccc1` (stereo partly shown) [Compound 7]: the IC50 on NK3 is 0.316 µM; on NK1, 0.2 µM.

With `Cn1c(N2CCC(N3CCN([C@H]4CCN(C(=O)c5cc(C(F)(F)F)cc(C(F)(F)F)c5)[C@H](Cc5ccccc5)C4)CC3)C2)nc2ccccc21` (stereo partly shown) [Compound 8], the IC50 is 3.98 µM at NK3 and 0.1 µM on NK1.

For `Cc1ccccc1-n1cncc1CN1CCC(N2CCN([C@H]3CCN(C(=O)c4cc(C(F)(F)F)cc(C(F)(F)F)c4)[C@H](Cc4ccccc4)C3)CC2)C1` (stereo partly shown) [Compound 9], the results for the IC50 at NK3 and on NK1 were 1.26 µM and 0.0398 µM, respectively.

As for `O=C(c1cc(C(F)(F)F)cc(C(F)(F)F)c1)N1CC[C@H](N2CCN(C3CCN(Cc4nc5ccccc5[nH]4)C3)CC2)C[C@H]1Cc1ccccc1` (stereo partly shown) [Compound 10], the figures for the IC50 on NK3 and on NK1 were 6.31 µM and 0.1 µM, respectively.

Turning to `CCOCCn1c(CN2CCC(N3CCN([C@H]4CCN(C(=O)c5cc(C(F)(F)F)cc(C(F)(F)F)c5)[C@H](Cc5ccccc5)C4)CC3)C2)nc2ccccc21` (stereo partly shown) [Compound 11], the IC50 on NK3 was 3.16 µM; at NK1 it was 0.126 µM.

With `N#Cc1cccc(C(=O)N2CCC(N3CCN([C@H]4CCN(C(=O)c5cc(C(F)(F)F)cc(C(F)(F)F)c5)[C@H](Cc5ccccc5)C4)CC3)C2)c1` (stereo partly shown) [Compound 12], the results for the IC50 at NK3 and at NK1 were 0.126 µM and 0.0794 µM, respectively.

As to `CC(C)Oc1cccc(C(=O)N2CCC(N3CCN([C@H]4CCN(C(=O)c5cc(C(F)(F)F)cc(C(F)(F)F)c5)[C@H](Cc5ccccc5)C4)CC3)C2)c1` (stereo partly shown) [Compound 15], the IC50 on NK3 is 2 µM; at NK1 it was 0.0316 µM.

For the compound `COc1cccc(OC)c1C(=O)N1CCC(N2CCN([C@H]3CCN(C(=O)c4cc(C(F)(F)F)cc(C(F)(F)F)c4)[C@H](Cc4ccccc4)C3)CC2)C1` (stereo partly shown) [Compound 18], the IC50 on NK3 is 2.51 µM; on NK1, 0.0251 µM.

`O=C(c1ccc(F)c(F)c1)N1CCC(N2CCN([C@H]3CCN(C(=O)c4cc(C(F)(F)F)cc(C(F)(F)F)c4)[C@H](Cc4ccccc4)C3)CC2)C1` (stereo partly shown) [Compound 20]: the IC50 was 5.01 µM on NK3 and 0.126 µM on NK1.

As to `O=C(c1ccc(Cl)cc1Cl)N1CCC(N2CCN([C@H]3CCN(C(=O)c4cc(C(F)(F)F)cc(C(F)(F)F)c4)[C@H](Cc4ccccc4)C3)CC2)C1` (stereo partly shown) [Compound 22], the results for the IC50 at NK3 and at NK1 were 2.51 µM and 0.0501 µM, respectively.

On to `Cc1occc1C(=O)N1CCC(N2CCN([C@H]3CCN(C(=O)c4cc(C(F)(F)F)cc(C(F)(F)F)c4)[C@H](Cc4ccccc4)C3)CC2)C1` (stereo partly shown) [Compound 36], for which the IC50 at NK3 is 0.2 µM; on NK1, 0.0251 µM.

`Cc1cc(C(=O)N2CCC(N3CCN([C@H]4CCN(C(=O)c5cc(C(F)(F)F)cc(C(F)(F)F)c5)[C@H](Cc5ccccc5)C4)CC3)C2)c(C)o1` (stereo partly shown) [Compound 37]: the IC50 at NK3 is 2 µM; on NK1, 0.0398 µM.

Take `Cc1oc(-c2ccccc2)cc1C(=O)N1CCC(N2CCN([C@H]3CCN(C(=O)c4cc(C(F)(F)F)cc(C(F)(F)F)c4)[C@H](Cc4ccccc4)C3)CC2)C1` (stereo partly shown) [Compound 38]: the figures for the IC50 at NK3 and on NK1 were 7.94 µM and 0.2 µM, respectively.

For `O=C(c1cccs1)N1CCC(N2CCN([C@H]3CCN(C(=O)c4cc(C(F)(F)F)cc(C(F)(F)F)c4)[C@H](Cc4ccccc4)C3)CC2)C1` (stereo partly shown) [Compound 42], the IC50 is 0.251 µM at NK3 and 0.0251 µM at NK1.
